Reference: patent US7678829B2, “Oculoselective drugs and prodrugs” (QLT Inc., priority 2004, dated 2010)

Legend:
albino rabbits = test: Corneal anesthesia measurements (Cochet's esthesiometer); type: in vivo, rabbit
Procedure: The effect of a 50 μl single instillation of 0.3%, 0.5%, 1.0% and 2.0% solution of compound 7 on corneal anesthesia, after a single instillation in the conjunctival sac of the right eyes of albino rabbits (N=5) was measured using a Cochet's esthesiometer (nylon thread: 0.12 mm diameter, 10 mm long). Corneal anesthesia was evaluated by the number of comeal mechanical stimuli necessary to induce a blinking reflex. The effect of drug solutions was compared with sterile 0.9% NaCl treated animals (control group) and 0.4% oxybuprocaine (Novesine®).

[1] = Accelerated stability test of 0.25% solutions in acetate buffer, HPLC; type: physicochemical; conditions: for projected shelf-life: conventional eye drop formulation, at room temperature
Procedure: An accelerated stability test was conducted on 0.25% solutions of compounds 6, 7, and 8 (Example 2) at 40° C. for 1, 2, 3, 4, 8 and 12 weeks and monitored for the disappearance of the prodrugs and appearance of the parent compound by HPLC analysis. The parent compound (referred to hereinafter as compound 4) has the formula: […]
The respective compounds were dissolved in an acetate buffer, pH 3.5 (0.018% sodium acetate, 0.135% acetic acid, 0.9% sodium chloride in water for injection) to obtain 0.25% solution. The stability of the compounds was determined at 40° C. for 1, 2, 3, 4, 8, and 12 weeks. The concentration of the parent compound as well as the concentrations of the prodrug compounds 6, 7, and 8 at each time point by HPLC method.

[2] = Ocular bioavailability, aqueous humor analyzed by HPLC; type: in vivo; conditions: rabbit aqueous humor
Procedure: Three rabbits were used per time point. The 50 μl test substance was administered in a single instillation using a micropipette into the conjunctival sac of the right and the left eyes. The rabbits were anesthetized with an intramuscular injection of Imalgéne® 1000 (ketamine 32 mg/kg), and Rompun® (xylasine 7.5 mg/kg). They were then desanguinated by cardiac puncture and thereafter euthanized by an overdose of pentobarbital. Immediately after death, the eyes were micro-dissected to obtain: cornea (C), aqueous humor (AH), and iris-ciliary body (ICB). All samples were stored at −80° C. Only aqueous humor (AH) samples were analyzed by HPLC.

Structure (SMILES) | corneal sensitivity (local anesthetic activity) (albino rabbits; at 1%) | projected shelf-life [1] | level of the prodrug itself in aqueous humor [2] | corneal sensitivity (local anesthetic activity) (albino rabbits; 50 μl single instillation of 0.3%, 0.5%, 1.0% and 2.0% solution, compared to 0.4% oxybuprocaine) | relative stability (FIG. 1, percent degradation) ([1]; 0.25% solution, 40° C., pH 3.5, compared among compounds 6, 7 and 8)
Cc1cc(O)c(O)cc1C(=O)OCC(CNC(C)(C)CNC(=O)C1CCOC1)OC(=O)C(C)(C)C (centres unmarked) [Compound 6, reference compound] | complete comeal sensitivity loss | 2.6 months | below the detection limit | – | –
Cc1cc(O)c(O)cc1C(=O)OCC(CNC(C)(C)CNC(=O)C1CCOC1)OC(=O)C1(C)CC1 (centres unmarked) [Compound 7, 4,5-Dihydroxy-2-methyl-benzoic acid 3-{1,1-dimethyl-2-[(tetrahydro-furan-3-carbonyl)-amino]-ethylamino}-2-(1-methyl-cyclopropanecarbonyloxy)-propyl ester] | – | at least 18 months | also present in aqueous humor | no comeal sensitivity | most stable
Cc1cc(O)c(O)cc1C(=O)OCC(CNC(C)(C)CNC(=O)C1CCOC1)OC(=O)C1CC1(C)C (centres unmarked) [Compound 8, 4,5-dihydroxy-2-methyl-benzoic acid 2-(2,2-dimethyl-cyclopropanecarbonyloxy)-3-{1,1-dimethyl-2-[(tetrahydro-furan-3-carbonyl)-amino]-ethylamino}-propyl ester] | – | 7.9 months | – | – | –
